This is an account of results in ChEMBL document CHEMBL2074141, “Comparison of lactate transport in astroglial cells and monocarboxylate transporter 1 (MCT 1) expressing Xenopus laevis oocytes. Expression of two different monocarboxylate transporters in astroglial cells and neurons” (J Biol Chem, 1997).

Common to all, as to assay type: functional, cell-based
What all share (parameters): scale not given: the % may be the effect or the level left
What all share (settings): Oocyte

For test [1], the target named is Monocarboxylate transporter 1 (Rattus norvegicus) (UniProt P53987). The test is described as follows: TP_TRANSPORTER: inhibition of lactate uptake (Lactate:0.1mM, pCMBS:1mM, preincubation with aminoxyacetate) in Xenopus laevis oocytes.
The target of test [2] is T1, Monocarboxylate transporter 1 (Rattus norvegicus) (UniProt P53987).
T1 sequence (whole entry): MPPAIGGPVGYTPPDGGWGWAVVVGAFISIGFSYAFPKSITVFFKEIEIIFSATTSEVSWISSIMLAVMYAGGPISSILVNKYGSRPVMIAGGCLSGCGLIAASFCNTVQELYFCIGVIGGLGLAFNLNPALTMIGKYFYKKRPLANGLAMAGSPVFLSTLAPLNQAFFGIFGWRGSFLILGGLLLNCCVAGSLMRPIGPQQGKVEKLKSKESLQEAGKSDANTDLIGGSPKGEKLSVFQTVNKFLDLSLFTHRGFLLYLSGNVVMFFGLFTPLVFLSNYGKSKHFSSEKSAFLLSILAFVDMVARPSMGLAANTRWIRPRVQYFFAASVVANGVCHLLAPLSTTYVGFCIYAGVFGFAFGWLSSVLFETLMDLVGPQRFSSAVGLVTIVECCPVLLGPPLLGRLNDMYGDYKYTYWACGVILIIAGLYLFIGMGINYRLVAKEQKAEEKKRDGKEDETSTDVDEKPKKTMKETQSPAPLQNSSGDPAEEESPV
The test is described as follows: TP_TRANSPORTER: inhibition of lactate uptake (Lactate:0.1mM, Acetoacetate:50mM, preincubation with aminoxyacetate) in Xenopus laevis oocytes.

Test [3] concerns the target T1, Monocarboxylate transporter 1 (Rattus norvegicus). In words: TP_TRANSPORTER: inhibition of lactate uptake (Lactate:0.1mM, 4-CIN:5mM, preincubation with aminoxyacetate) in Xenopus laevis oocytes.
For test [4] the target is unchanged. The test is described as follows: TP_TRANSPORTER: inhibition of lactate uptake (Lactate:0.1mM, D,L-3-Hydroxybutyrate:50mM, preincubation with aminoxyacetate) in Xenopus laevis oocytes.
The target is the same in test [5]. The test is described as follows: TP_TRANSPORTER: inhibition of lactate uptake (Lactate:0.1mM, alpha-Ketoisocaproate:5mM, preincubation with aminoxyacetate) in Xenopus laevis oocytes.
The target is the same in test [6]. The test is described as follows: TP_TRANSPORTER: inhibition of lactate uptake (Lactate:0.1mM, Pyruvate:1mM, preincubation with aminoxyacetate) in Xenopus laevis oocytes.

p-Chloromercuribenzenesulfonate: the Activity in test [1] is 18%.

Take `CC(=O)CC(=O)O`: the Activity in test [2] is 13%.

With `N#C/C(=C\c1ccc(O)cc1)C(=O)O`, the Activity in test [3] was 9%.

`CC(O)CC(=O)O` (racemic): the Activity in test [4] was 7%.

Turning to `CC(C)CC(=O)C(=O)O`, the Activity in test [5] is 13%.

Turning to `CC(=O)C(=O)O`, the Activity in test [6] is 23%.
